Like-named read-outs stand apart in the source and are kept apart here.
Test: Plasma and tissue distribution in SD rats
Assay type: in vivo
Conditions: for Tissue/Plasma Ratio (AUCinf) / Kp: SD rat; for Kp / AUC(0-t): rat; for Kp: oral, read-out: Tissue/Plasma Ratio (AUCinf); for AUC(0-t): read-out: AUClast; for AUC0-inf: read-out: AUCINF_obs
Description: The following Example describes the methods and data used to evaluate the tissue distribution of TYK2 inhibitors following the administration of either compound 1 or compound 2.
Thirty (30, 15/sex) SD rats supplied by Beijing Vital River Laboratory Animal Technology Co., Ltd. were used in this study. The animals were confirmed to be healthy before being assigned to the study. The room (s) was controlled and monitored for relative humidity (targeted mean range 40% to 70%) and temperature (targeted mean range 20° C. to 26° C.) with 15 or above air changes/hour. The room was on a 12-hour light/dark cycle except when interruptions were necessitated by study activities. Fresh drinking water (reverses osmosis) was available to all animals, ad libitum. Certified animal diet from certified vendor was available to all animals, ad libitum.
Animals were weighed prior to dose administration to calculate the actual dose volume. The body weights were in the range from 245.39 to 276.33 g for males and 182.29 to 215.69 g for females on the first dosing day. The animals in Groups 1 and 2 received a single oral gavage administration of test compound 1. Cage-side observations for the general health condition and appearance of the animal were performed before and after dosing and at each time point of sample collection. Unusual observations were recorded throughout the duration of the study.
The vehicle was 0.5% methyl cellulose (4000 cps) in water. The formulation was prepared according to the following steps. Group 1: 25.95 mg of compound 1 was weighed into a glass vial. 5000 μL of vehicle was added into the vial and stirred for 30 min at 1700 rpm to get a homogenous opaque suspension. 5000 μL of vehicle was added into the vial and stirred for 10 min at 1700 rpm to get a homogenous opaque suspension. 5000 μL+5000 μL+5000 μL+924 μL of vehicle was added into the vial and stirred for 10 min at 1700 rpm to get a homogenous opaque suspension. Group 2: 81.66 mg of compound 1 was weighed into a glass vial. 5000 μL of vehicle was added into the vial and stirred for 30 min at 1700 rpm to get a homogenous opaque suspension. 5000 μL of vehicle was added into the vial and stirred for 10 min at 1700 rpm to get a homogenous opaque suspension. 10 mL+10 mL+10 mL+20 mL+10 mL+10 mL+1580 μL of vehicle was added into the vial and stirred for 10 min at 1700 rpm to get a homogenous opaque suspension.
Blood (about 0.2 mL) was collected at each time point via jugular vein puncture from each study animal. The actual time for each sample collection was recorded. The acceptable deviations on sampling time were ±1 min for the time points pre-dose through 1 hour post-dose, and +5% of the nominal time for time points after 1 hour post-dose.
All blood samples were transferred into commercial tubes containing K2-EDTA. After blood was collected, the samples were placed on wet ice and processed for plasma within 60 minutes of collection by centrifugation at approximately 4° C., 3200×g for 10 minutes, and then quickly frozen over dry ice and kept at −60° C. or lower until LC-MS/MS analysis.
Following terminal blood sample collection, animals were conducted CO2 euthanasia, the chest and abdominal cavities were opened carefully lengthwise using scissors to expose the internal organs in preparation of tissue perfusion. A needle was used to puncture a small hole into the left ventricle of the heart, and then clamped with a hemostat. […] Fluid (cold 1×PBS) was infused until the liver pales (typically 2-3 minutes). Following perfusion, 14 kinds of tissues (spleen, bone marrow, adipose, brain, heart, kidney, liver, lung, skin, small intestine, large intestine, eye, gonads, and bladder) were collected from each animal, respectively.
Each tissue was weighed and homogenized on wet ice using homogenizing buffer (MeOH/15 mM PBS 1:2) at the ratio of 1:9 (1 g tissue with 9 mL buffer). The tissue homogenate was kept at −60° C. or lower until LC-MS/MS analysis. […]

[1] = female, Sprague-Dawley (SD), large intestine, F SD rat, L. Intestine
[2] = female, Sprague-Dawley (SD), F SD rat, Bone Marrow
[3] = female, Sprague-Dawley (SD), F SD rat, Brain
[4] = female, Sprague-Dawley (SD), F SD rat, Eye
[5] = female, Sprague-Dawley (SD), F SD rat, Heart
[6] = female, Sprague-Dawley (SD), F SD rat, Kidney
[7] = female, Sprague-Dawley, F SD rat, Adipose
[8] = female, Sprague-Dawley, F SD rat, Bladder
[9] = female, Sprague-Dawley, F SD rat, Spleen
[10] = female, small intestine, F SD rat, S. Intestine
[11] = male, Sprague-Dawley (SD), large intestine, M SD rat, L. Intestine
[12] = male, Sprague-Dawley (SD), M SD rat, Brain
[13] = male, Sprague-Dawley (SD), M SD rat, Eye
[14] = male, Sprague-Dawley (SD), M SD rat, Heart
[15] = male, Sprague-Dawley (SD), M SD rat, Kidney
[16] = male, Sprague-Dawley, M SD rat, Adipose
[17] = male, Sprague-Dawley, M SD rat, Bladder
[18] = male, Sprague-Dawley, M SD rat, Skin
[19] = male, Sprague-Dawley, M SD rat, Spleen
[20] = male, Sprague-Dawley, M SD rat, Testis
[21] = male, small intestine, M SD rat, S. Intestine

SMILES: C[C@@H](c1ccc(Nc2cc(Nc3ncc(F)cc3S(C)(=O)=O)ncn2)nc1)N1CC2(COC2)C1 [Compound 2, (S)—N^4-(5-(1-(2-oxa-6-azaspiro[3.3]heptan-6-yl)ethyl)pyridin-2-yl)-N^6-(5-fluoro-3-(methylsulfonyl)pyridin-2-yl)pyrimidine-4,6-diamine]
- HL_Lambda_z (F SD rat, Adipose): 2.78 h
- HL_Lambda_z (F SD rat, Bladder): 2.37 h
- HL_Lambda_z (F SD rat, Bone Marrow): 2.26 h
- HL_Lambda_z (F SD rat, Eye): 6.23 h
- HL_Lambda_z (F SD rat, Kidney): 2.34 h
- HL_Lambda_z (F SD rat, L. Intestine): 4.97 h
- HL_Lambda_z (F SD rat, Liver): 2.31 h
- HL_Lambda_z (F SD rat, Lung): 2.26 h
- HL_Lambda_z (F SD rat, Plasma): 3.20 h
- HL_Lambda_z (F SD rat, S. Intestine): 2.06 h
- HL_Lambda_z (F SD rat, Skin): 5.71 h
- HL_Lambda_z (F SD rat, Spleen): 2.29 h
- HL_Lambda_z (M SD rat, Bladder): 2.13 h
- HL_Lambda_z (M SD rat, Kidney): 3.28 h
- HL_Lambda_z (M SD rat, Plasma): 2.21 h
- HL_Lambda_z (M SD rat, S. Intestine): 2.05 h
- HL_Lambda_z (M SD rat, Skin): 2.43 h
- HL_Lambda_z (M SD rat, Spleen): 2.24 h
- Tissue/Plasma Ratio (AUCinf) (Kidney): 13
- Tissue/Plasma Ratio (AUCinf) (Large Intestine): 23
- Kp (Sprague-Dawley (SD), bone marrow / plasma, Bone Marrow): 9.6
- Kp (Sprague-Dawley, adipose, Adipose): 4.5
- Kp (Sprague-Dawley, bladder, Bladder): 8.7
- Kp (Sprague-Dawley, eye, Eye): 1.2
- Kp (Sprague-Dawley, kidney, Kidney): ~13
- Kp (Sprague-Dawley, large intestine, Large Intestine): ~23
- Kp (Sprague-Dawley, liver, Liver): 8.7
- Kp (Sprague-Dawley, lung, Lung): 7.1
- Kp (Sprague-Dawley, skin, Skin): 2.5
- Kp (Sprague-Dawley, small intestine, Small Intestine): 27
- Kp (Sprague-Dawley, spleen, Spleen): 12
- AUC(0-t) (female, SD, bone marrow, F SD rat, Bone Marrow): 38700 ng·h/mL
- AUC(0-t) (female, SD, lung, F SD rat, Lung): 29400 ng·h/mL
- AUC(0-t) (female, SD, ovaries, F SD rat, Ovaries): 4360 ng·h/mL
- AUC(0-t) (female, SD, plasma, F SD rat, Plasma): 4120 ng·h/mL
- AUC(0-t) (female, SD, skin, F SD rat, Skin): 8430 ng·h/mL
- AUC(0-t) (female, SD, small intestine, F SD rat, S. Intestine): 110000 ng·h/mL
- Tmax [1]: 120 min
- AUC(0-t) (female, Sprague-Dawley (SD), eye, F SD rat, Eye): 4880 ng·h/mL
- AUC(0-t) (female, Sprague-Dawley (SD), heart, F SD rat, Heart): 8990 ng·h/mL
- AUC(0-t) (female, Sprague-Dawley (SD), kidney, F SD rat, Kidney): 51800 ng·h/mL
- AUC(0-t) [1]: 95000 ng·h/mL
- Cmax [2]: 3080 ng/mL
- Tmax [2]: 30 min
- AUC0-inf [2]: 38300 ng·h/mL
- Cmax [3]: 104 ng/mL
- Tmax [3]: 30 min
- Cmax [4]: 700 ng/mL
- Tmax [4]: 30 min
- AUC0-inf [4]: 4910 ng·h/mL
- Cmax [5]: 2500 ng/mL
- Tmax [5]: 30 min
- Cmax [6]: 9870 ng/mL
- Tmax [6]: 30 min
- AUC0-inf [6]: 51800 ng·h/mL
- AUC(0-t) (female, Sprague-Dawley, adipose, F SD rat, Adipose): 18700 ng·h/mL
- AUC(0-t) (female, Sprague-Dawley, bladder, F SD rat, Bladder): 18600 ng·h/mL
- AUC(0-t) (female, Sprague-Dawley, spleen, F SD rat, Spleen): 43400 ng·h/mL
- Cmax [7]: 4310 ng/mL
- Tmax [7]: 30 min
- Cmax [8]: 2650 ng/mL
- Tmax [8]: 30 min
- AUC0-inf [8]: 18600 ng·h/mL
- Cmax [9]: 12500 ng/mL
- Tmax [9]: 30 min
- Cmax [10]: 24800 ng/mL
- Tmax [10]: 30 min
- AUC0-inf [10]: 130000 ng·h/mL
- Tmax (female, F SD rat, Liver): 30 min
- AUC0-inf (female, F SD rat, Liver): 35900 ng·h/mL
- Cmax (female, F SD rat, Lung): 3070 ng/mL
- Tmax (female, F SD rat, Lung): 30 min
- AUC0-inf (female, F SD rat, Lung): 29500 ng·h/mL
- Cmax (female, F SD rat, Ovaries): 1940 ng/mL
- Tmax (female, F SD rat, Ovaries): 30 min
- Cmax (female, F SD rat, Plasma): 625 ng/mL
- Tmax (female, F SD rat, Plasma): 480 min
- AUC0-inf (female, F SD rat, Plasma): 4140 ng·h/mL
- Cmax (female, F SD rat, Skin): 1180 ng/mL
- Tmax (female, F SD rat, Skin): 30 min
- AUC0-inf (female, F SD rat, Skin): 8450 ng·h/mL
- AUC(0-t) (male, SD, liver, M SD rat, Liver): 14700 ng·h/mL
- AUC(0-t) (male, SD, lung, M SD rat, Lung): 18200 ng·h/mL
- AUC(0-t) (male, SD, skin, M SD rat, Skin): 7820 ng·h/mL
- Cmax [11]: 7320 ng/mL
- Tmax [11]: 480 min
- AUC(0-t) (male, Sprague-Dawley (SD), bone marrow, M SD rat, Bone Marrow): 19600 ng·h/mL
- AUC(0-t) (male, Sprague-Dawley (SD), brain, M SD rat, Brain): 273 ng·h/mL
- AUC(0-t) (male, Sprague-Dawley (SD), heart, M SD rat, Heart): 2880 ng·h/mL
- AUC(0-t) (male, Sprague-Dawley (SD), kidney, M SD rat, Kidney): 32600 ng·h/mL
- Tmax (male, Sprague-Dawley (SD), M SD rat, Bone Marrow): 30 min
- Cmax [12]: 68.9 ng/mL
- Tmax [12]: 30 min
- Cmax [13]: 535 ng/mL
- Tmax [13]: 156 min
- Cmax [14]: 2520 ng/mL
- Tmax [14]: 30 min
- Cmax [15]: 9620 ng/mL
- Tmax [15]: 30 min
- AUC0-inf [15]: 32600 ng·h/mL
- Cmax (male, Sprague-Dawley (SD), M SD rat, Liver): 6340 ng/mL
- AUC(0-t) (male, Sprague-Dawley, adipose, M SD rat, Adipose): 12200 ng·h/mL
- AUC(0-t) (male, Sprague-Dawley, bladder, M SD rat, Bladder): 36200 ng·h/mL
- AUC(0-t) (male, Sprague-Dawley, spleen, M SD rat, Spleen): 25700 ng·h/mL
- AUC(0-t) (male, Sprague-Dawley, testis, M SD rat, Testis): 5090 ng·h/mL
- Cmax [16]: 3900 ng/mL
- Tmax [16]: 30 min
- Cmax [17]: 6820 ng/mL
- Tmax [17]: 33.6 min
- AUC0-inf [17]: 36300 ng·h/mL
- Tmax [18]: 30 min
- AUC0-inf [18]: 8020 ng·h/mL
- Cmax [19]: 6860 ng/mL
- Tmax [19]: 30 min
- Cmax [20]: 318 ng/mL
- Tmax [20]: 480 min
- Cmax [21]: 28900 ng/mL
- Tmax [21]: 30 min
- Cmax (male, M SD rat, Bone Marrow): 4530 ng/mL
- Tmax (male, M SD rat, Liver): 30 min
- Cmax (male, M SD rat, Lung): 4410 ng/mL
- Tmax (male, M SD rat, Lung): 30 min
- Cmax (male, M SD rat, Plasma): 509 ng/mL
- Tmax (male, M SD rat, Plasma): 180 min
- AUC0-inf (male, M SD rat, Plasma): 2680 ng·h/mL
- Cmax (male, M SD rat, Skin): 1460 ng/mL
